# Article PMC7237762, “Total Synthesis and Biological Evaluation of Kakeromamide A and Its Analogues” (Frontiers in Chemistry, 2020)
# Assays:
# neural stem cells (NSCs) [1] = assay: NSC differentiation assay, astrocytic differentiation (GFAP immunostaining); type: cell-based; details: 2.5, 5 and 10 μM; 72 hours in differentiation medium; anti-GFAP immunostaining, Hoechst 33342 nuclei; n = 3
# Protocol: (§1) Next, kakeromamide A or its respective derivative was exposed at three concentrations (2.5, 5, and 10 μM) during differentiation of neural stem cells (NSCs). The effects of kakeromamide A and its analogs on the neural differentiation into neurons or astrocytes were evaluated by using NeuO (Er et al., [2015]) a fluorescent probe which could selectively stain neurons, or immunostaining of an astrocyte marker GFAP (glial fibrillary acidic protein), respectively. The nuclei were stained by using Hoechst 33342 followed by the microscopic analysis. Their activities were determined by calculating a ratio NeuO or GFAP positive cells to whole cells and comparing with that of the control. […] Furthermore, the astrocytic or neuronal differentiation were promoted or inhibited, respectively, by treatment with four analogs of compound 1.
# (§2) V. Procedures for Biological Tests:
# (§3) Induction of neural stem cells in vitro: Neural stem cells (NSCs) were obtained following the procedure (Iwata, et al., 2016; Nakayama, et al., 2006) with modification. Embryoid bodies (EBs) were induced by hanging drop method for 72 hours using 7,500 cells per 20 µL of ESCs culturing medium without LIF. Then the EBs were cultured in non-adhesive bacterial dishes in Neuron Culture Medium (Sumitomo Bakelite, Tokyo, Japan) supplemented with 20 ng/mL rhEGF (R&D Systems, Minneapolis, MN, USA) and 20 ng/mL rhFGF-2 (R&D Systems). […]
# neural stem cells (NSCs) [2] = assay: NSC differentiation assay, neuronal differentiation (NeuO staining); type: cell-based; details: 2.5, 5 and 10 μM, 72 hours in differentiation medium, Hoechst 33342 nuclei, n = 3
# Protocol: as §1, §2, §3
# neural stem cells (NSCs) [3] = details: isolated natural product; ref Nakamura et al., 2018; cited from earlier work
# Source text: (§4) Marine cyanobacteria have been playing a pivotal role in producing structurally diversified and biologically intriguing peptides (Luesch et al., [2001]; Guzman-Martinez et al., [2007]; Zainuddin et al., [2007]). In 2018, we reported the isolation of a novel cyclopeptide, kakeromamide A (Figure 1), from the marine cyanobacterium Moorea bouillonii collected near Japan (Nakamura et al., [2018]). […] To the best of our knowledge, this is the first example of marine cyclopeptide t ...
# Hela cells = details: preliminary biological tests of the isolated natural product; ref Nakamura et al., 2018; read-out: cytotoxicity IC50 against Hela cells; cited from earlier work
# Source text: as §4
# astrocytes = assay: Cell cytotoxicity toward astrocytes (Hoechst 33342 staining); type: cell-based; details: 2.5, 5 and 10 μM, n = 3
# Source text: (§5) Bioactive compounds modulating proliferation and differentiation of neural stem cells are required as chemical probes to study about mechanism of neural development or lead compounds for regenerative medicine. In order to evaluate neural differentiation-modulating activities of kakeromamide A and its analogs, we elected to perform the biological tests using the same procedure that we reported in the isolation paper (Nakamura et al., [2018]). Neural stem cells were obtained following the procedure (Nakayama and Inoue, [2006]; Iwata et al., [2016]) with modification. 2.5, 5, and 10 μM of kakeromamide A or its respective derivative was added to astrocytes or neurons. The cell cytotoxicity of kakeromamide A and its analogs toward astrocytes or neurons was carried out using Hoechst 33342 staining (Figure 7).
# (§6) Figure 7 Cytotoxicity of Kakeromamide A and Its Analogs. (A) Percentages of cell numbers calculated by Hoechst 33342 positive cells, compared to that of control, in evaluating effects of kakeromamide A and its analogs for astrocytes (n = 3, means ± S.D., *p < 0.05). (B) Percentages of cell numbers calculated by Hoechst 33342 positive cells, compared to that of control, in evaluating effects of kakeromamide A and its analogs for neurons (n = 3, means ± S.D., *p < 0.05).
# neurons = assay: Cell cytotoxicity toward neurons (Hoechst 33342 staining); type: cell-based; details: 2.5, 5 and 10 μM, n = 3
# Source text: as §5, §6
substance,measurement,setting,value
Kakeromamide A,astrocytic differentiation of NSCs (ratio of GFAP positive cells to whole cells vs control),neural stem cells (NSCs) [1],promoting differentiation of NSCs into astrocytes
same,neuronal differentiation of NSCs (ratio of NeuO positive cells to whole cells vs control),neural stem cells (NSCs) [2],inhibiting neuronal differentiation of NSCs
same,concentration inducing neural stem cells differentiation into astrocytes,neural stem cells (NSCs) [3],2.5 to 10 µM
same,IC50,Hela cells,10 µM
same,cytotoxicity toward astrocytes (cell number by Hoechst 33342 positive cells vs control),astrocytes,No significant cytotoxicity
same,cytotoxicity toward neurons (cell number by Hoechst 33342 positive cells vs control),neurons,No significant cytotoxicity
